# ChEMBL document CHEMBL1150719, “Constituents of Tritonia crocosmaeflora, I. Tricrozarin A, a novel antimicrobial naphthazarin derivative” (1987)
# Experiments:
# Assay type in all cases: functional
# Bacillus subtilis = assay: Antibacterial activity against Bacillus subtilis PCI 219 after 24 hrs at 37 degC by paper disk assay; conditions: PCI 219, 24 h
# Micrococcus luteus = assay: Antibacterial activity against Micrococcus luteus ATCC 9341 after 24 hrs at 37 degC by paper disk assay; conditions: ATCC 9341, 24 h
# Aspergillus niger = assay: Antifungal activity against Aspergillus niger ATCC 6275 at 27 degC by paper disk assay
# Mucor racemosus = assay: Antifungal activity against Mucor racemosus IFO 5403 at 27 degC by paper disk assay
# Candida albicans = assay: Antifungal activity against Candida albicans KF1 at 27 degC by paper disk assay
# Saccharomyces = assay: Antifungal activity against Saccharomyces sake KF26 at 27 degC by paper disk assay
smiles,measurement,setting,value
COC1=C(OC)C(=O)c2c(O)c3c(c(O)c2C1=O)OCO3 [TRICROZARIN A],MIC,Bacillus subtilis,5.1 µg/mL
same,MIC,Micrococcus luteus,112 µg/mL
same,MIC,Aspergillus niger,81.3 µg/mL
same,MIC,Mucor racemosus,10.2 µg/mL
same,MIC,Candida albicans,81.3 µg/mL
same,MIC,Saccharomyces,81.3 µg/mL
